# Data reported in patent US6620833B1, “Substituted benzimidazoles, production and use thereof as agents for combating parasitic protozoas” (Bayer Aktiengesellschaft, priority 1998, dated 2003).
# How the values were obtained:
# Format in all cases: in vivo
# [1] = system: Eimeria acervulina, Eimeria maxima and Eimeria tenella; test: Cage experiment on coccidiosis/chicks, mixed experimental infection; settings: for dropping scores / lesion score: assessment 0 to 6; for mortality n: dead animals/animals employed
# Procedure: 8 to 12 day-old male chicks (e.g. LSL Brinkschulte/Senden) which have been reared coccidia-free receive the compounds according to the invention (test substances) in the concentration indicated in ppm with the feed from 3 days before (day −3) infection (=a.i.) until 8 (9) days after infection (=p.i.). 3 animals are kept in each cage. One or more groups of this type are employed per dose. Infection is carried out by means of a stomach tube directly into the crop with approximately 100,000 sporulated oocysts of Eimeria acervulina and with approximately 30,000 oocysts each of E. maxima and 40,000 sporulated oocysts of E. tenella. These are highly virulent strains. The exact infection dose is adjusted so that, if possible, one of three experimentally infected untreated chicks dies due to the infection. For assessment of the efficacy, the following criteria are taken into account: weight increase from the start of the experiment to the end of the experiment, death rate due to infection, macroscopic assessment of the faeces with respect to diarrhoea and excretion of blood on days 5 and 7 p.i. (assessment 0 to 6), macroscopic assessment of the intestinal mucosa, in particular of the appendices (assessment 0 to 6) and the oocyst excretion as well as the proportion (in %) of the oocysts sporulating in the course of 24 hours. The number of oocysts in the faeces was determined with the aid of a McMaster counting chamber (see Engelbrecht and coworkers “Parasitologische Arbeitsmethoden in Medizin and Veterinärmedizin” [Parasitological Working Methods in Medicine and Veterinary Medicine], Akademie-Verlag, Berlin (1965)). The individual findings are related to the untreated non-infected control groups and a total score is calculated (cf. A. Haberkorn (1986), pp. 263 to 270 in Research in Avian Coccidiosis ed L. R. McDougald, L. P. Joyner, P. L. Long, Proceedings of the Georgia Coccidiosis Conference, Nov. 18-20, 1985. Athens/Georgia USA).
# In the column “ppm”, the concentration of the active compound employed in the feed is indicated in ppm.
# In the column “mortality” the percentage of the dead animals is indicated under % and the number of dead animals/animals employed in the experiment is indicated under n.
# In the column “weight % of not inf. control” the ratio of the weight of the treated animals to the weight of the non-infected control group is indicated.
# In the columns “dropping scores”, “lesion score” and “oocyst control”, individual details of the action are given.
# In the column “% efficacy”, the total score is assessed; 0% means no action, 100% means full action.
# Eimeria acervulina = test: Cage experiment on coccidiosis/chicks, E. acervulina readout; settings: for Efficacy against Eimeria acervulina: first symbol of cell; as to Efficacy against Eimeria acervulina: key: 2=full action; 1=slight action; 0=inactive; D=death
# Eimeria maxima = test: Cage experiment on coccidiosis/chicks, E. maxima readout; settings: for Efficacy against Eimeria maxima: second symbol of cell; as to Efficacy against Eimeria maxima: key: 2=full action; 1=slight action; 0=inactive; D=death
# Eimeria tenella = test: Cage experiment on coccidiosis/chicks, E. tenella readout; settings: for Efficacy against Eimeria tenella: third symbol of cell; as to Efficacy against Eimeria tenella: key: 2=full action; 1=slight action; 0=inactive; D=death
structure (smiles),measurement,setting,value
CCN(Cn1c(C(F)(F)F)nc2c(Br)cc3c(c21)OC(F)(F)C(F)(F)O3)C(=O)OC [Ex. 1],% efficacy tot.,"[1]; Table 1, 7.5 ppm in feed",65%
same,mortality %,"[1]; Table 1, 7.5 ppm in feed",0%
same,oocyst in % of inf. control tot.,"[1]; Table 1, 7.5 ppm in feed",1.3%
same,weight % of not inf. control,"[1]; Table 1, 7.5 ppm in feed",76%
same,dropping scores,"[1]; Table 1, 7.5 ppm in feed",6
same,lesion score,"[1]; Table 1, 7.5 ppm in feed",5.3
same,mortality n,"[1]; Table 1, 7.5 ppm in feed",0/3
same,% efficacy tot.,"[1]; Table 1, 10 ppm in feed",75%
same,mortality %,"[1]; Table 1, 10 ppm in feed",0%
same,oocyst in % of inf. control tot.,"[1]; Table 1, 10 ppm in feed",0%
same,weight % of not inf. control,"[1]; Table 1, 10 ppm in feed",84%
same,dropping scores,"[1]; Table 1, 10 ppm in feed",6
same,lesion score,"[1]; Table 1, 10 ppm in feed",3.3
same,mortality n,"[1]; Table 1, 10 ppm in feed",0/3
same,% efficacy tot.,"[1]; Table 2, 1 ppm in feed",36%
same,mortality %,"[1]; Table 2, 1 ppm in feed",33%
same,oocyst in % of inf. control tot.,"[1]; Table 2, 1 ppm in feed",82%
same,weight % of not inf. control,"[1]; Table 2, 1 ppm in feed",31%
same,dropping scores,"[1]; Table 2, 1 ppm in feed",6
same,lesion score,"[1]; Table 2, 1 ppm in feed",6
same,mortality n,"[1]; Table 2, 1 ppm in feed",1/3
same,% efficacy tot.,"[1]; Table 2, 2.5 ppm in feed",36%
same,mortality %,"[1]; Table 2, 2.5 ppm in feed",33%
same,oocyst in % of inf. control tot.,"[1]; Table 2, 2.5 ppm in feed",58%
same,weight % of not inf. control,"[1]; Table 2, 2.5 ppm in feed",42%
same,dropping scores,"[1]; Table 2, 2.5 ppm in feed",4-6
same,lesion score,"[1]; Table 2, 2.5 ppm in feed",6
same,mortality n,"[1]; Table 2, 2.5 ppm in feed",1/3
same,% efficacy tot.,"[1]; Table 2, 5 ppm in feed",90%
same,mortality %,"[1]; Table 2, 5 ppm in feed",0%
same,oocyst in % of inf. control tot.,"[1]; Table 2, 5 ppm in feed",37%
same,weight % of not inf. control,"[1]; Table 2, 5 ppm in feed",110%
same,dropping scores,"[1]; Table 2, 5 ppm in feed",1
same,lesion score,"[1]; Table 2, 5 ppm in feed",0
same,mortality n,"[1]; Table 2, 5 ppm in feed",0/3
same,% efficacy tot.,"[1]; Table 3, 5 ppm in feed",45%
same,mortality %,"[1]; Table 3, 5 ppm in feed",0%
same,oocyst in % of inf. control tot.,"[1]; Table 3, 5 ppm in feed",12%
same,weight % of not inf. control,"[1]; Table 3, 5 ppm in feed",72%
same,dropping scores,"[1]; Table 3, 5 ppm in feed",6
same,lesion score,"[1]; Table 3, 5 ppm in feed",6
same,mortality n,"[1]; Table 3, 5 ppm in feed",0/3
same,% efficacy tot.,"[1]; Table 3, 7.5 ppm in feed",65%
same,mortality %,"[1]; Table 3, 7.5 ppm in feed",0%
same,oocyst in % of inf. control tot.,"[1]; Table 3, 7.5 ppm in feed",1.3%
same,weight % of not inf. control,"[1]; Table 3, 7.5 ppm in feed",76%
same,dropping scores,"[1]; Table 3, 7.5 ppm in feed",6
same,lesion score,"[1]; Table 3, 7.5 ppm in feed",5.3
same,mortality n,"[1]; Table 3, 7.5 ppm in feed",0/3
same,% efficacy tot.,"[1]; Table 3, 10 ppm in feed",75%
same,mortality %,"[1]; Table 3, 10 ppm in feed",0%
same,oocyst in % of inf. control tot.,"[1]; Table 3, 10 ppm in feed",0%
same,weight % of not inf. control,"[1]; Table 3, 10 ppm in feed",84%
same,dropping scores,"[1]; Table 3, 10 ppm in feed",6
same,lesion score,"[1]; Table 3, 10 ppm in feed",3.3
same,mortality n,"[1]; Table 3, 10 ppm in feed",0/3
same,oocyst in % of inf. control ac.,"Eimeria acervulina; Table 1, 7.5 ppm in feed",3%
same,oocyst in % of inf. control ac.,"Eimeria acervulina; Table 1, 10 ppm in feed",0%
same,oocyst in % of inf. control ac.,"Eimeria acervulina; Table 2, 1 ppm in feed",49%
same,oocyst in % of inf. control ac.,"Eimeria acervulina; Table 2, 2.5 ppm in feed",19%
same,oocyst in % of inf. control ac.,"Eimeria acervulina; Table 2, 5 ppm in feed",1%
same,oocyst in % of inf. control ac.,"Eimeria acervulina; Table 3, 5 ppm in feed",6%
same,oocyst in % of inf. control ac.,"Eimeria acervulina; Table 3, 7.5 ppm in feed",3%
same,oocyst in % of inf. control ac.,"Eimeria acervulina; Table 3, 10 ppm in feed",0%
same,Efficacy against Eimeria acervulina,"Eimeria acervulina; Table 4, dose 2.5 ppm",1
same,Efficacy against Eimeria acervulina,"Eimeria acervulina; Table 4, dose 5 ppm",2
same,Efficacy against Eimeria acervulina,"Eimeria acervulina; Table 4, dose 10 ppm",2
same,oocyst in % of inf. control max.,"Eimeria maxima; Table 1, 7.5 ppm in feed",0%
same,oocyst in % of inf. control max.,"Eimeria maxima; Table 1, 10 ppm in feed",0%
same,oocyst in % of inf. control max.,"Eimeria maxima; Table 2, 1 ppm in feed",100%
same,oocyst in % of inf. control max.,"Eimeria maxima; Table 2, 2.5 ppm in feed",100%
same,oocyst in % of inf. control max.,"Eimeria maxima; Table 2, 5 ppm in feed",100%
same,oocyst in % of inf. control max.,"Eimeria maxima; Table 3, 5 ppm in feed",0%
same,oocyst in % of inf. control max.,"Eimeria maxima; Table 3, 7.5 ppm in feed",0%
same,oocyst in % of inf. control max.,"Eimeria maxima; Table 3, 10 ppm in feed",0%
same,Efficacy against Eimeria maxima,"Eimeria maxima; Table 4, dose 2.5 ppm",1
same,Efficacy against Eimeria maxima,"Eimeria maxima; Table 4, dose 5 ppm",2
same,Efficacy against Eimeria maxima,"Eimeria maxima; Table 4, dose 10 ppm",2
same,oocyst in % of inf. control ten.,"Eimeria tenella; Table 1, 7.5 ppm in feed",1%
same,oocyst in % of inf. control ten.,"Eimeria tenella; Table 1, 10 ppm in feed",1%
same,oocyst in % of inf. control ten.,"Eimeria tenella; Table 2, 1 ppm in feed",97%
same,oocyst in % of inf. control ten.,"Eimeria tenella; Table 2, 2.5 ppm in feed",55%
same,oocyst in % of inf. control ten.,"Eimeria tenella; Table 2, 5 ppm in feed",11%
same,oocyst in % of inf. control ten.,"Eimeria tenella; Table 3, 5 ppm in feed",30%
same,oocyst in % of inf. control ten.,"Eimeria tenella; Table 3, 7.5 ppm in feed",1%
same,oocyst in % of inf. control ten.,"Eimeria tenella; Table 3, 10 ppm in feed",1%
same,Efficacy against Eimeria tenella,"Eimeria tenella; Table 4, dose 2.5 ppm",1
same,Efficacy against Eimeria tenella,"Eimeria tenella; Table 4, dose 5 ppm",2
same,Efficacy against Eimeria tenella,"Eimeria tenella; Table 4, dose 10 ppm",2
"CO[C@@H]1[C@@H](OC)[C@H](C)[C@@](O)(CC(=O)O)O[C@H]1[C@H](C)[C@H]1O[C@@]2(CC[C@@](C)([C@H]3CC[C@@](C)([C@@H]4O[C@@H]([C@H]5O[C@](C)(O)[C@H](C)C[C@@H]5C)C[C@@H]4O[C@@H]4C[C@H](OC)[C@@H](OC)[C@H](C)O4)O3)O2)C[C@H](O)[C@H]1C [MAD, Maduramicin, reference compound]",% efficacy tot.,"[1]; Table 2, 1 ppm in feed",73%
same,mortality %,"[1]; Table 2, 1 ppm in feed",0%
same,oocyst in % of inf. control tot.,"[1]; Table 2, 1 ppm in feed",46%
same,weight % of not inf. control,"[1]; Table 2, 1 ppm in feed",93%
same,dropping scores,"[1]; Table 2, 1 ppm in feed",1
same,lesion score,"[1]; Table 2, 1 ppm in feed",2
same,mortality n,"[1]; Table 2, 1 ppm in feed",0/3
same,% efficacy tot.,"[1]; Table 2, 2 ppm in feed",84%
same,mortality %,"[1]; Table 2, 2 ppm in feed",0%
same,oocyst in % of inf. control tot.,"[1]; Table 2, 2 ppm in feed",51%
same,weight % of not inf. control,"[1]; Table 2, 2 ppm in feed",114%
same,dropping scores,"[1]; Table 2, 2 ppm in feed",0
same,lesion score,"[1]; Table 2, 2 ppm in feed",2
same,mortality n,"[1]; Table 2, 2 ppm in feed",0/3
same,% efficacy tot.,"[1]; Table 2, 3 ppm in feed",100%
same,mortality %,"[1]; Table 2, 3 ppm in feed",0%
same,oocyst in % of inf. control tot.,"[1]; Table 2, 3 ppm in feed",1.3%
same,weight % of not inf. control,"[1]; Table 2, 3 ppm in feed",112%
same,dropping scores,"[1]; Table 2, 3 ppm in feed",0
same,lesion score,"[1]; Table 2, 3 ppm in feed",0
same,mortality n,"[1]; Table 2, 3 ppm in feed",0/3
same,oocyst in % of inf. control ac.,"Eimeria acervulina; Table 2, 1 ppm in feed",8%
same,oocyst in % of inf. control ac.,"Eimeria acervulina; Table 2, 2 ppm in feed",8%
same,oocyst in % of inf. control ac.,"Eimeria acervulina; Table 2, 3 ppm in feed",1%
same,oocyst in % of inf. control max.,"Eimeria maxima; Table 2, 1 ppm in feed",100%
same,oocyst in % of inf. control max.,"Eimeria maxima; Table 2, 2 ppm in feed",100%
same,oocyst in % of inf. control max.,"Eimeria maxima; Table 2, 3 ppm in feed",0%
same,oocyst in % of inf. control ten.,"Eimeria tenella; Table 2, 1 ppm in feed",30%
same,oocyst in % of inf. control ten.,"Eimeria tenella; Table 2, 2 ppm in feed",45%
same,oocyst in % of inf. control ten.,"Eimeria tenella; Table 2, 3 ppm in feed",3%
